Measured values from patent US11771685B2, “Compounds for the treatment of neurological or mitochondrial diseases” (MUSC FOUNDATION FOR RESEARCH DEVELOPMENT, priority 2018, dated 2023).
In brackets after ≈: the same amount, converted by molar mass.

Columns and labels:
[1] = Mini-Ames test (mutagenicity); type: cell-based; details: in vitro
[2] = system: 6 Hz electrically-induced seizures in mice; experiment: 6 Hz mouse seizure model; type: in vivo; details: for Number of Animals Protected / Effective Dose / Time of Peak Effect: 5% DMSO: 95% Neobee; for protection against seizures, preliminary testing: toxicity by Rotarod assay and behavioral observations; for 6 Hz 32 mA N/T, mice protected / 6 Hz 44 mA N/T, mice protected: 1 hr
Protocol: In particular, using (i) electrical model to test for seizures in mice and, separately, (ii) in rat 6 Hz 40V model. More specifically, NT-102 was injected (i.p.) in 5% DMSO/95% Miglyol 840 as vehicle. […] […] The mice were administered the NT-102 at various doses and placed on the rotarod (i.e., “Rotarod (Tox)”) to test if the mice would fall off as a model of due to the effects of NT-102; for the “Rotarod(Tox)” results, the “NIT” indicates the number of mice that fell off the rotarod (e.g., for Rotarod(Tox) results, if N/T is 0/8, then zero out of eight mice fell off). […] […] The 44 mA electrical dosage was used since it is considered to be a model to test for medication-resistant epilepsy.

[3] = Aqueous solubility at pH 7.4; type: physicochemical; details: pH 7.4, aqueous buffer; 50 mM phosphate buffer
[4] = system: rat brain slices; experiment: Rat in vitro spontaneous electrographic bursting model
Protocol: (§1) Synthesis for both compounds has been successfully scaled up. The pharmacokinetic (PK) parameters of these two Vitamin K analogs were determined via intravenous, intraperitoneal and oral administration in mice, and preliminary in vitro ADMET parameters were assessed (Table 3). These compounds are Ames-negative, have hepatic stability greater than 1 hour, can be formulated in oral solution and IV injection solution, can be synthesized in greater than 1 mg quantities, and have established brain PK. However, brain tissue binding was high for both compounds (97-98%). Both 3 (NT-181) and 17 (NT-102) have been tested for efficacy in the 6 Hz mouse seizure model at 22 mA and 32 mA, the corneal kindled mouse model, and the rat in vitro spontaneous electrographic bursting model of pharmacoresistance (Table 4). […] Preliminary studies with this new formulation reveal excellent solubility with full protection in the 6 Hz mouse seizure model at 22 mA, and quantification of both compounds (using this new formulation) in this model at 22 mA, 32 mA and 44 mA, is being performed as well as retesting in the corneal kindled model. […] Rat PK assessments will be performed, and seizure protection assessed in rat models in the ADD workflow such as the 6 Hz model and lamotrigine-resistant amygdala kindled mode.

[5] = system: corneal kindled mouse; experiment: Mouse corneal kindled model; type: in vivo; details: 5% DMSO: 95% Neobee
Protocol: as §1

[6] = system: 6 Hz 40 V electrically-induced seizures in rats; experiment: Rat 6 Hz 40 V seizure model; type: in vivo
Protocol: In particular, using (i) electrical model to test for seizures in mice and, separately, (ii) in rat 6 Hz 40V model. More specifically, NT-102 was injected (i.p.) in 5% DMSO/95% Miglyol 840 as vehicle. Mice were challenged with 6 Hz 44 mA current to see if seizures would result. […] The Time of Peak Effect (TPE) was observed 1 hour. Additional data is shown below in Table 5. The mice were administered the NT-102 at various doses and placed on the rotarod (i.e., “Rotarod (Tox)”) to test if the mice would fall off as a model of due to the effects of NT-102; for the “Rotarod(Tox)” results, the “NIT” indicates the number of mice that fell off the rotarod (e.g., for Rotarod(Tox) results, if N/T is 0/8, then zero out of eight mice fell off). For the electrical stimulation data (i.e., “6 Hz 44 mA”), an electrical stimulation of 6 Hz 44 mA was administered. […] The 44 mA electrical dosage was used since it is considered to be a model to test for medication-resistant epilepsy.
The 6 Hz 40 V electrical stimulation amount was used because this electrical dosage is considered to be a rat model for medication-resistant epilepsy.

[7] = Rotarod neurotoxicity test in mice; type: in vivo, mouse; details: 1 hr, 44 mA study
Protocol: Mice or rats were administered the NT-102 compound i.p., one hour was allowed to pass (since the time to peak effect was determined to be about one hour), and then rodents were then placed on the Rotarod to determine if any motor defects would be observed; after the rotarod test, then rodents were administered an electrical stimulation to determine if the dose of NT-102 would protect against (i.e., prevent) the seizures due to the electrical stimulation. In particular, using (i) electrical model to test for seizures in mice and, separately, (ii) in rat 6 Hz 40V model. More specifically, NT-102 was injected (i.p.) in 5% DMSO/95% Miglyol 840 as vehicle. Mice were challenged with 6 Hz 44 mA current to see if seizures would result. […] The Time of Peak Effect (TPE) was observed 1 hour. Additional data is shown below in Table 5. The mice were administered the NT-102 at various doses and placed on the rotarod (i.e., “Rotarod (Tox)”) to test if the mice would fall off as a model of due to the effects of NT-102; for the “Rotarod(Tox)” results, the “NIT” indicates the number of mice that fell off the rotarod (e.g., for Rotarod(Tox) results, if N/T is 0/8, then zero out of eight mice fell off). For the electrical stimulation data (i.e., “6 Hz 44 mA”), an electrical stimulation of 6 Hz 44 mA was administered. […] The 44 mA electrical dosage was used since it is considered to be a model to test for medication-resistant epilepsy.

CCC#CCNC1=CC(=O)c2ccccc2C1=O [Compound 3, 2-(Pent-2-yn-1-ylamino)naphthalene-1,4-dione]
Mini-Ames test (mutagenicity) [1]: Ames-negative | Mini-Ames test (mutagenicity) ([1]; listed as NT-181): Negative | Number of Animals Protected ([2]; 22 mA, 100 mg/kg): 8/8 at 100 mg/kg | Effective Dose ([2]; 22 mA): 80.60 (25-100) mg/kg | Time of Peak Effect ([2]; 22 mA): 0.5 h | Number of Animals Protected ([2]; 32 mA, 100 mg/kg): 0/7 | Number of Animals Protected ([2]; 32 mA, 300 mg/kg): 3/8 | Number of Animals Protected ([2]; 44 mA, 100 mg/kg): 0/8 at 100 mg/kg | protection against seizures, preliminary testing [2]: displayed protection against seizures with few or no toxic events | solubility [3]: 4.79 µg/mL (≈ 20 µM) | Number protected ([4]; 5 uM): 0/8 at 5 uM | Number of Animals Protected ([5]; 300 mg/kg): 0/8 at 300 mg/kg

CC(C)CCNC1=CC(=O)c2ccccc2C1=O [Compound 17, 2-(Isopentylamino)naphthalene-1,4-dione]
Mini-Ames test (mutagenicity) [1]: Ames-negative | Mini-Ames test (mutagenicity) ([1]; listed as NT-102): Negative | 6 Hz 32 mA N/T, mice protected ([2]; 50 mg/kg): 0/8 | 6 Hz 44 mA N/T, mice protected ([2]; 100 mg/kg i.p.): 0/8 | 6 Hz 32 mA N/T, mice protected ([2]; 100 mg/kg): 4/8 | 6 Hz 44 mA N/T, mice protected ([2]; 200 mg/kg i.p.): 2/8 | 6 Hz 32 mA N/T, mice protected ([2]; 200 mg/kg): 3/8 | 6 Hz 44 mA N/T, mice protected ([2]; 300 mg/kg i.p.): 4/8 | 6 Hz 32 mA N/T, mice protected ([2]; 300 mg/kg): 7/8 | 6 Hz 44 mA N/T, mice protected ([2]; 400 mg/kg i.p.): 8/8 | Time of Peak Effect (TPE) ([2]; 6 Hz 44 mA, i.p., 5% DMSO/95% Miglyol 840): 1 h | Number of Animals Protected ([2]; 22 mA, 400 mg/kg): 8/8 at 400 mg/kg | Effective Dose ([2]; 22 mA): 209.05 (25-400) mg/kg | Time of Peak Effect ([2]; 22 mA): 0.25 h | Number of Animals Protected ([2]; 32 mA, 400 mg/kg): 2/8 at 400 mg/kg | ED50 ([2]; Mus musculus, 6 Hz 32 mA): 153 mg/kg | protection against seizures, preliminary testing [2]: displayed protection against seizures with few or no toxic events | solubility [3]: 9.64 µg/mL (≈ 39.6 µM) | 6 Hz 40 V N/T, rats protected ([6]; 200 mg/kg, 1 hr): 1/8 | 6 Hz 40 V N/T, rats protected ([6]; 250 mg/kg, 1 hr): 2/8 | 6 Hz 40 V N/T, rats protected ([6]; 300 mg/kg i.p., 0.25 hr): 3/8 | 6 Hz 40 V N/T, rats protected ([6]; 300 mg/kg i.p., 0.5 hr): 0/8 | 6 Hz 40 V N/T, rats protected ([6]; 300 mg/kg i.p., 1 hr): 5/8 | 6 Hz 40 V N/T, rats protected ([6]; 300 mg/kg i.p., 2 hr): 0/4 | 6 Hz 40 V N/T, rats protected ([6]; 300 mg/kg i.p., 4 hr): 0/4 | 6 Hz 40 V N/T, rats protected ([6]; 350 mg/kg, 1 hr): 6/8 | ED50 ([6]; Rattus norvegicus, 6 Hz 40 V): 293 mg/kg | Time to peak result ([6]; i.p., 6 Hz 40 V): about one | Number protected ([4]; 10 uM): 0/9 at 10 uM | Rotarod (Tox) N/T, mice that fell off ([7]; 100 mg/kg i.p.): 0/8 | Rotarod (Tox) N/T, mice that fell off ([7]; 200 mg/kg i.p.): 2/8 | Rotarod (Tox) N/T, mice that fell off ([7]; 300 mg/kg i.p.): 0/8 | Rotarod (Tox) N/T, mice that fell off ([7]; 400 mg/kg i.p.): 1/8 | Number of Animals Protected ([5]; 100, 300 and 400 mg/kg): 0/24 at 100, 300 and 400 mg/kg
